From patent publication EP4725956A1, “MODIFIED POLYPEPTIDE AND USE THEREOF IN FIELD OF ANALGESIA” (Nanjing Anji Biotechnology Co., Ltd., priority 2023, dated 2024)
Positions of bridges follow the written chain, without caps; N, C: chain ends. Non-standard residues stand in square brackets, D forms with d. Residues, ends and D or L forms follow the SMILES beside them. Hyp = O=C(O)[C@@H]1C[C@@H](O)CN1; Aib = CC(C)(N)C(=O)O

Key:
[1] = biological target: T1, α9 nAChR (Homo sapiens, UniProt Q9UGM1); test: BLI (biolayer interferometry) affinity of peptides to α9 nAChR; type: binding; conditions: NTA sensor, α9 nAChR 5 µg/mL, peptide 1.372-1000 nM in PBS
T1 construct: inferred from capture on NTA sensor
Description: (§1) BLI is a label-free technology that converts optical interference signals occurring on the surface of BLI biosensors into real-time response signals. By monitoring the molecular binding process in real time, the system determines association rate constants (ka or kon), dissociation rate constants (kd or koff), and initial binding rates, and calculates affinity (KD) by fitting analysis. Here are the specific procedures: NTA sensors (Sartorius) were placed in a pre-wetting tray, which was then positioned in a black 96-well plate with 200 µL PBS per well. The NTA sensors were pre-wetted for at least 15 minutes. The target protein α9 nAChR was diluted in PBS to 5 µg/mL, with 200 µL added per well. Test peptides were dissolved in PBS and serially diluted threefold, with concentrations from high to low as 1000 nM, 333.3 nM, 111.1 nM, 37.04 nM, 12.35 nM, 4.115 nM, and 1.372 nM, with an additional well with PBS only as a zeroconcentration control. After equilibrating the instrument baseline, the NTA sensor was used to immobilize the target protein α9 nAChR. Once immobilization was complete, the baseline was re-equilibrated, followed by a 5-minute association and a 5-minute dissociation phase. Affinity measurements of the test peptides were conducted sequentially using the above procedure. The procedure for measuring peptide affinity to α7 nAChR was similar, except that the α7 nAChR concentration was 20 µg/mL. Tables 2 and 3 show the BLI-determined affinities of alanine-scan peptide analogs with target proteins, which identified sites on the parent peptide suitable for modification. Subsequently, single-site non-natural amino acid substituted peptides were evaluated by BLI for target protein affinity. Finally, multi-site combinatorial modified peptides were measured for affinity by BLI, leading to the selection of high-affinity peptides for further screen and drug development potential. Table 2 Test Results for Affinity of Modified Peptides to α9 nAChR

[2] = system: mouse oxaliplatin acute chemotherapy pain model; test: Mouse oxaliplatin chemotherapy pain model, multiple peptides (Example 8); type: in vivo; conditions: single dose 3 mg/kg s.c., 0.5-8 h post-dose, n=3
Protocol: Oxaliplatin was dissolved in 5% glucose solution to a concentration of 1 mg/mL. For model induction, each male C57 mouse (Shanghai Bikai Keyi Biotechnology Co., Ltd.) received a single intraperitoneal injection of oxaliplatin at 10 mg/kg. Mice in the negative control or blank control group received 5% glucose solution. Approximately one week after model induction, mechanical pain thresholds of the mice were measured three times per mouse, and the average value was calculated. Mice were then randomly assigned to groups based on their pain thresholds. Drug administration was carried out according to the dosing schedule shown in Table 7, with a single dose per mouse. Mechanical pain thresholds were measured at 0.5, 1, 2, 4, 6, and 8 h post-dose. […] Table 7 Dosing Scheme for Oxaliplatin Chemotherapy Pain Model in Mice

[3] = Plasma stability of AJ003-40 and AJ003-24 (HPLC, Example 4); type: in vitro ADME; conditions: human plasma; for main peak area: 2 mg/mL
Protocol: Peptides AJ003-40 and AJ003-24 were separately weighed and mixed with human plasma to prepare solutions at 2 mg/mL. 300 µL of peptide-containing plasma was mixed with 300 µL acetonitrile, centrifuged at 4°C and 12,000 rpm for 5 minutes, and the supernatant was filtered through an organic membrane. 200 µL of the filtrate was transferred to an LC vial as the 0 h sample. Peptide-containing plasma was incubated in a 37°C water bath. For AJ003-40, 300 µL of plasma was sampled at 24 h, mixed with 300 µL acetonitrile, centrifuged, filtered, and 200 µL of the filtrate was transferred to an LC vial as the 24 h sample. For AJ003-24, 300 µL of plasma was sampled at 22 h, processed similarly, and 200 µL of the filtrate was transferred to an LC vial as the 22 h sample.

[4] = biological target: α7 nAChR (Homo sapiens, UniProt P36544); test: BLI (biolayer interferometry) affinity of peptides to α7 nAChR; type: binding; set-up: inferred from the 'similar' procedure on NTA sensors; conditions: NTA sensor, α7 nAChR 20 µg/mL, peptide 1.372-1000 nM in PBS
Description: as §1

[5] = biological target: α9α10 nAChRs (Homo sapiens, UniProt Q9GZZ6+Q9UGM1); conditions: cited from earlier work
[6] = biological target: Cav2.2 channel (Homo sapiens, UniProt Q00975); conditions: cited from earlier work
Cav2.2 channel, sequence (Q00975 whole entry, looked up): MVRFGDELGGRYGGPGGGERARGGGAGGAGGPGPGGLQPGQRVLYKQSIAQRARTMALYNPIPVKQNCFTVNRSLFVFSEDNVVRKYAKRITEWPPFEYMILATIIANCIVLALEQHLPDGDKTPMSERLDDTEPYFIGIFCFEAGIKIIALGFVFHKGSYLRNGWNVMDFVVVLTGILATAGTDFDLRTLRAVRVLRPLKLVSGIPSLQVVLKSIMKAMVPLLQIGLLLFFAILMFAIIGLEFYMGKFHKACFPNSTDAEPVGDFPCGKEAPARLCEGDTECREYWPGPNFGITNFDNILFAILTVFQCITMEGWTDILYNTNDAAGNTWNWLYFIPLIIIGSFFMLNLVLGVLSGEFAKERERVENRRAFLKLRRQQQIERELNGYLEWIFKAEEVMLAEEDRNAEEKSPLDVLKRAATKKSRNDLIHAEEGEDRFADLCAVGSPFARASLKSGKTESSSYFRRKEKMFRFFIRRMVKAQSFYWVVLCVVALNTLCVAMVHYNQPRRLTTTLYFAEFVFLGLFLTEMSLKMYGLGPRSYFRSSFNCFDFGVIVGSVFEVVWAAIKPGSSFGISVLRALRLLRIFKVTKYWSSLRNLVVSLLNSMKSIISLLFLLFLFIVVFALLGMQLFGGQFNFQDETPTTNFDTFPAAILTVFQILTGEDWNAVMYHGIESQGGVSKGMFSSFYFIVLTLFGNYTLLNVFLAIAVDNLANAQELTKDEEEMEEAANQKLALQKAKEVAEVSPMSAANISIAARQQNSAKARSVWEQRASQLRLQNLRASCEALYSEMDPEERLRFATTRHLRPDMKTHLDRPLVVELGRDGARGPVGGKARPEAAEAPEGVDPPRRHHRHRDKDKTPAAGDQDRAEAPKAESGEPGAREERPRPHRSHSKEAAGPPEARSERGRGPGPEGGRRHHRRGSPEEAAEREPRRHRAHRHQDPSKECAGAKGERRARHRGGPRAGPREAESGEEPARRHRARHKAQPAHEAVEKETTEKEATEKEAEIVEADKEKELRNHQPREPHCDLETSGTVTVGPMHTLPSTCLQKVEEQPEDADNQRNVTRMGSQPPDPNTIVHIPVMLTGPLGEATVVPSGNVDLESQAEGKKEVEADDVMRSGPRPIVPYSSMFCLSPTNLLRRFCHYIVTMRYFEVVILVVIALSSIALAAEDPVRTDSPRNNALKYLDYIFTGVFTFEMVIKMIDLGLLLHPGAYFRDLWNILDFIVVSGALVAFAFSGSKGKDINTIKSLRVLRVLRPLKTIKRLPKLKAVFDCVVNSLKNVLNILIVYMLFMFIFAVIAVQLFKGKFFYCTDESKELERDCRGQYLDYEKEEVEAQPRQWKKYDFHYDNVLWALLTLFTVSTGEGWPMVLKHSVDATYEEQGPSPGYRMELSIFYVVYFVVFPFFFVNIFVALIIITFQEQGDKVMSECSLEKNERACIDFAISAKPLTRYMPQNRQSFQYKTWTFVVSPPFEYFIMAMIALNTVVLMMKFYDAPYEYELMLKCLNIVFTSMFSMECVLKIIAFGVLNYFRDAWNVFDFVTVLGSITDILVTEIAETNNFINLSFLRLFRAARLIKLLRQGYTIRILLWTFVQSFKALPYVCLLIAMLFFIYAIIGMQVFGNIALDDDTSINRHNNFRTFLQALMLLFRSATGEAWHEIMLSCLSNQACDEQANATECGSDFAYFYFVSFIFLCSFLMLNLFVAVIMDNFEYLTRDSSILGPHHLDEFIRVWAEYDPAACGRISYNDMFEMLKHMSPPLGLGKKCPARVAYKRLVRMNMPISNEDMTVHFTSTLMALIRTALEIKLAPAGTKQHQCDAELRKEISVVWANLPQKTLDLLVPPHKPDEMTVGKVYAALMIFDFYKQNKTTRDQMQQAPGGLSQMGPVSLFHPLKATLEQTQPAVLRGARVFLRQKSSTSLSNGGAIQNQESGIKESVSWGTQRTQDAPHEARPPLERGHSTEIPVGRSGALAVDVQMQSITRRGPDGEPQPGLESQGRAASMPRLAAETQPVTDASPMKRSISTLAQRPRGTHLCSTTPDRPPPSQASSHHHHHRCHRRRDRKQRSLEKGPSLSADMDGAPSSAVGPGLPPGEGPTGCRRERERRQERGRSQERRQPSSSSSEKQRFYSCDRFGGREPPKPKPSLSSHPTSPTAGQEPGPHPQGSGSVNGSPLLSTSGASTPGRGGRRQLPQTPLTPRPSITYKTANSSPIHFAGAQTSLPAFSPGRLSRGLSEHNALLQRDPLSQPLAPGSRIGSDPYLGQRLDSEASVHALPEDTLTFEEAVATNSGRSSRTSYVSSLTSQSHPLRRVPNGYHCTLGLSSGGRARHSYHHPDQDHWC

T1 sequence (Q9UGM1 23-479): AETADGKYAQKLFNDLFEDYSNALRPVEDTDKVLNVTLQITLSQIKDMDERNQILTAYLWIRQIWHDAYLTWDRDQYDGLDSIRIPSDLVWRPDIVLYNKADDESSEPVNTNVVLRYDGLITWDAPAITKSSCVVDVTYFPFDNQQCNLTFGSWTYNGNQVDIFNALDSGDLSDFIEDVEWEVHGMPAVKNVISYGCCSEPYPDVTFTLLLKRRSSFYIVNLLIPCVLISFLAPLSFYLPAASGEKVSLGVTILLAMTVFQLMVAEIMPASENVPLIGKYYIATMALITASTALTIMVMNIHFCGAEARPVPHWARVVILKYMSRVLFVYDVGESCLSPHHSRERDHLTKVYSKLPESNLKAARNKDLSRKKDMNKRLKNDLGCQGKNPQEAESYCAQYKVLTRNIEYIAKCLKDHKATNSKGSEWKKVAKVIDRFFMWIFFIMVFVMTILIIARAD
α7 nAChR, sequence (P36544 23-502): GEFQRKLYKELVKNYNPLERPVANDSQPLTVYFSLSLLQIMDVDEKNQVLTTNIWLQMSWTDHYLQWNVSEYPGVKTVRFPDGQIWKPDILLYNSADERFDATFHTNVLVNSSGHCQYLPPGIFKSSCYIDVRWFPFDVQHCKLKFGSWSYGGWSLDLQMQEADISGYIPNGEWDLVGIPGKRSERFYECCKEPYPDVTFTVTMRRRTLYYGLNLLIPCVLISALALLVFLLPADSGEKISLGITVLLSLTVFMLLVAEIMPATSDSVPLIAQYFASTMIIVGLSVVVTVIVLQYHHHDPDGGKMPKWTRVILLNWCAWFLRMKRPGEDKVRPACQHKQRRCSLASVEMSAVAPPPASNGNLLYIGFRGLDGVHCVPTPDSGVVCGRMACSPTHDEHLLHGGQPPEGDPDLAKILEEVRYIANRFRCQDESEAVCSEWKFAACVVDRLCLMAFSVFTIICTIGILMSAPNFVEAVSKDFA
α9α10 nAChRs, sequence (Q9UGM1 26-479 limits assumed): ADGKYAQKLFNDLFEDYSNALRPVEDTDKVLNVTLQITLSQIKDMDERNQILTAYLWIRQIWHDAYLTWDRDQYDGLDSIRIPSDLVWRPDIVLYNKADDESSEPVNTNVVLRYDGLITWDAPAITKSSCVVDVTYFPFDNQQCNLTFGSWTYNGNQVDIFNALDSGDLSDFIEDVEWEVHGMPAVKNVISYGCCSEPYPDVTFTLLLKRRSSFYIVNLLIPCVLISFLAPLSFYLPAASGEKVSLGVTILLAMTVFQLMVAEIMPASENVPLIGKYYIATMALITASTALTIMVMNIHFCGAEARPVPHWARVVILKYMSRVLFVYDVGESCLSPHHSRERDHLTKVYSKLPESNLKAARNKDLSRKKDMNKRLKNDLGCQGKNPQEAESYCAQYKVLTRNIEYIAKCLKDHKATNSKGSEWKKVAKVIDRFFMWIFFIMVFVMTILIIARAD
α9α10 nAChRs, sequence (Q9GZZ6 25-450): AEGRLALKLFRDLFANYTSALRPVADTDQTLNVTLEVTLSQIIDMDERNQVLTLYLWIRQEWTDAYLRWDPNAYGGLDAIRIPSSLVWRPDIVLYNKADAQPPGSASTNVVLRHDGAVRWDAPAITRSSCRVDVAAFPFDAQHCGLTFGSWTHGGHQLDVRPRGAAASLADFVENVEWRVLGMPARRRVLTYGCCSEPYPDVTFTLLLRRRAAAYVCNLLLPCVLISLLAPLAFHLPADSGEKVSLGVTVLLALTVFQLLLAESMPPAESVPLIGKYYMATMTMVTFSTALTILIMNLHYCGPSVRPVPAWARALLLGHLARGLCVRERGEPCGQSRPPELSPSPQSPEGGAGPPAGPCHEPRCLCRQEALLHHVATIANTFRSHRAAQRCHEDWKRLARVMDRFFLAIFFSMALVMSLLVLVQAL

**Q.** With `CC(C)C[C@H](NC(=O)[C@@H](NC(=O)[C@H]1CSSC[C@H](NC(=O)[C@H](CO)NC(=O)CN)C(=O)N[C@@H](CO)C(=O)N[C@H]([C@H](C)O)C(=O)N2C[C@H](O)C[C@H]2C(=O)N2CCC[C@H]2C(=O)N[C@@H](CO)C(=O)N1)C(C)C)C(=O)N[C@@H](Cc1ccc(O)cc1)C(=O)N[C@@H](CO)C(=O)O` [AJ003-16, GSCS-(D-Thr)-Hyp-PS-(D-Cys)-VLYS (3,9 disulfide bond)] (H-GSCS[dT][Hyp]PS[dC]VLYS-OH; disulfide 3-9) as the molecule, how does the Kd [1] read?
**A.** The Kd was 35.3 nM.

**Q.** With `CC(C)C[C@H](NC(=O)[C@@H](NC(=O)[C@H]1CSSC[C@H](NC(=O)[C@H](CO)NC(=O)CN)C(=O)N[C@@H](CO)C(=O)N[C@H]([C@H](C)O)C(=O)N2CCC[C@H]2C(=O)N2C[C@H](O)C[C@H]2C(=O)N[C@@H](CO)C(=O)N1)C(C)C)C(=O)N[C@@H](Cc1ccc(O)cc1)C(=O)N[C@@H](CO)C(=O)O` [AJ003-17, GSCS-(D-Thr)-P-Hyp-S-(D-Cys)-VLYS (3,9 disulfide bond)] (H-GSCS[dT]P[Hyp]S[dC]VLYS-OH; disulfide 3-9) as the molecule, how does the Kd [1] read?
**A.** Its Kd is 110 nM.

**Q.** With `CC(C)C[C@H](NC(=O)[C@@H](NC(=O)[C@H]1CSSC[C@H](NC(=O)[C@H](CO)NC(=O)CN)C(=O)N[C@@H](CO)C(=O)N[C@H]([C@H](C)O)C(=O)N2CCC[C@H]2C(=O)N2CCC[C@H]2C(=O)NCC(=O)N1)C(C)C)C(=O)N[C@@H](Cc1ccc(O)cc1)C(=O)N[C@@H](CO)C(=O)O` [AJ003-24, GSCS-(D-Thr)-PPG-(D-Cys)-VLYS (3,9 disulfide bond)] (H-GSCS[dT]PPG[dC]VLYS-OH; disulfide 3-9) as the molecule, how does the “analgesic activity against oxaliplatin-induced chemotherapy pain (mechanical pain threshold compared with the model group)” value [2] read?
**A.** Its value is “ineffective”.

**Q.** What about the main peak area ([3]; 0 h) of the same molecule?
**A.** The main peak area was 746.80.

**Q.** What about the main peak area ([3]; 37°C, 22 h) of the same molecule?
**A.** The main peak area was 267.45.

**Q.** What about the metabolised at 22 h, 2 mg/mL ([3]; 37°C, 22 h, read-out: degradation) of the same molecule?
**A.** The metabolised at 22 h, 2 mg/mL was 64.2%.

**Q.** Which results are given for `CC(C)C[C@H](NC(=O)C(C)(C)NC(=O)[C@H]1CSSC[C@H](NC(=O)[C@H](CO)NC(=O)CN)C(=O)N[C@@H](CO)C(=O)N[C@H]([C@H](C)O)C(=O)N2CCC[C@H]2C(=O)N2CCC[C@H]2C(=O)N[C@@H](CO)C(=O)N1)C(=O)N[C@@H](Cc1ccc(O)cc1)C(=O)N[C@@H](CO)C(=O)O` [AJ003-25, GSCS-(D-Thr)-PPS-(D-Cys)-Aib-LYS (3,9 disulfide bond)] (H-GSCS[dT]PPS[dC][Aib]LYS-OH; disulfide 3-9)?
**A.** analgesic activity against oxaliplatin-induced chemotherapy pain (mechanical pain threshold compared with the model group) [2]: ineffective; Kd [4]: 4.67 µM

**Q.** Which “reduction of activity on human receptors compared to rat receptors” value [5] does the source give for Vc1.1 here?
**A.** The value was “approximately 100 fold”.

**Q.** With ziconotide as the molecule, how does the “analgesic potency relative to opioids” value [6] read?
**A.** The value was “approximately 1000 times”.
